Source: ChEMBL document CHEMBL4732067, “Synthesis and evaluation of new compounds bearing 3-(4-aminopiperidin-1-yl)methyl magnolol scaffold as anticancer agents for the treatment of non-small cell lung cancer via targeting autophagy” (Eur J Med Chem, 2021)
Each block holds one compound with its values, some of them ahead of it.

Legend:
NCI-H460 [1] = test: Antitumor activity against human NCI-H460 cells xenografted in nude BABL/c mouse assessed as tumor growth inhibition at 10 mg/kg, po administered once daily and measured every two days by caliper method relative to control; format: functional; conditions: 48 h, read-out: TGI
HCC827 = test: Antiproliferative activity against human HCC827 cells assessed as reduction in cell viability after 72 hrs by MTT assay; format: functional, cell-based; conditions: HCC827, 72 h
NCI-H1975 = test: Antiproliferative activity against human NCI-H1975 cells assessed as reduction in cell viability after 72 hrs by MTT assay; format: functional, cell-based; conditions: NCI-H1975, 72 h
NCI-H460 [2] = test: Antiproliferative activity against human NCI-H460 cells assessed as reduction in cell viability after 72 hrs by MTT assay; format: functional, cell-based; conditions: NCI-H460, 72 h
A549 = test: Antiproliferative activity against human A549 cells expressing wild type EGFR assessed as reduction in cell viability after 72 hrs by MTT assay; format: functional, cell-based; conditions: A549, 72 h
[3] = Antiproliferative activity against human SPCA1 cells expressing wild type EGFR assessed as reduction in cell viability after 72 hrs by MTT assay; format: functional, cell-based; conditions: SPCA1, 72 h
NCI-H1650 = test: Antiproliferative activity against human NCI-H1650 cells expressing EGFR mutant assessed as reduction in cell viability after 72 hrs by MTT assay; format: functional, cell-based; conditions: NCI-H1650, 72 h
NCI-H441 = test: Antiproliferative activity against human NCI-H441 cells […] assessed as reduction in cell viability after 72 hrs by MTT assay; format: functional, cell-based; conditions: NCI-H441, 72 h
[4] = Metabolic stability in human liver microsomes assessed as half life; format: ADME, Microsome
[5] = Metabolic stability in human liver microsomes assessed as intrinsic clearance per gram protein; format: ADME, Microsome
L929 = test: Cytotoxicity against mouse L929 cells; format: cell-based
[6] = Antitumor activity against mouse C26 cells xenografted in BALB/c mouse assessed as tumor growth inhibition at 50 mg/kg, po administered once daily and measured every two days by caliper method relative to control; format: functional; conditions: 48 h, read-out: TGI
NCI-H460 [7] = test: Antitumor activity against human NCI-H460 cells xenografted in nude BABL/c mouse assessed as tumor growth inhibition at 60 mg/kg, po administered once daily and measured every two days by caliper method relative to control; format: functional; conditions: 48 h, read-out: TGI
NCI-H460 [8] = test: Induction of cell cycle arrest in human NCI-H460 cells assessed as accumulation at G0/G1 phase at 1 uM incubated for 24 hrs by propidium iodide staining based flow cytometry (reference value: 53.97 %); format: functional
NCI-H460 [9] = test: Induction of cell cycle arrest in human NCI-H460 cells assessed as accumulation at G2/M phase at 1 uM incubated for 24 hrs by propidium iodide staining based flow cytometry (reference value: 16.71 %); format: functional
NCI-H460 [10] = test: Induction of cell cycle arrest in human NCI-H460 cells assessed as accumulation at S phase at 1 uM incubated for 24 hrs by propidium iodide staining based flow cytometry (reference value: 29.32 %); format: functional
NCI-H460 [11] = test: Induction of cell cycle arrest in human NCI-H460 cells assessed as accumulation at G0/G1 phase at 5 uM incubated for 24 hrs by propidium iodide staining based flow cytometry (reference value: 53.97 %); format: functional
NCI-H460 [12] = test: Induction of cell cycle arrest in human NCI-H460 cells assessed as accumulation at G2/M phase at 5 uM incubated for 24 hrs by propidium iodide staining based flow cytometry (reference value: 16.71 %); format: functional
NCI-H460 [13] = test: Induction of cell cycle arrest in human NCI-H460 cells assessed as accumulation at S phase at 5 uM incubated for 24 hrs by propidium iodide staining based flow cytometry (reference value: 29.32 %); format: functional
NCI-H460 [14] = test: Induction of cell cycle arrest in human NCI-H460 cells assessed as accumulation at G0/G1 phase at 10 uM incubated for 24 hrs by propidium iodide staining based flow cytometry (reference value: 53.97 %); format: functional
NCI-H460 [15] = test: Induction of cell cycle arrest in human NCI-H460 cells assessed as accumulation at G2/M phase at 10 uM incubated for 24 hrs by propidium iodide staining based flow cytometry (reference value: 16.71 %); format: functional
NCI-H460 [16] = test: Induction of cell cycle arrest in human NCI-H460 cells assessed as accumulation at S phase at 10 uM incubated for 24 hrs by propidium iodide staining based flow cytometry (reference value: 29.32 %); format: functional
NCI-H460 [17] = test: Induction of apoptosis in human NCI-H460 cells assessed as viable cells at 1 uM after 48 hrs by Annexin V-FITC/propidium iodide staining based flow cytometric analysis (reference value: 91.528 %); format: functional; conditions: read-out: Activity
NCI-H460 [18] = test: Induction of apoptosis in human NCI-H460 cells assessed as early apoptotic cells at 1 uM after 48 hrs by Annexin V-FITC/propidium iodide staining based flow cytometric analysis (reference value: 3.980 %); format: functional
NCI-H460 [19] = test: Induction of apoptosis in human NCI-H460 cells assessed as late apoptotic cells at 1 uM after 48 hrs by Annexin V-FITC/propidium iodide staining based flow cytometric analysis (reference value: 3.995 %); format: functional
NCI-H460 [20] = test: Induction of apoptosis in human NCI-H460 cells assessed as necrotic cells at 1 uM after 48 hrs by Annexin V-FITC/propidium iodide staining based flow cytometric analysis (reference value: 0.498 %); format: functional
NCI-H460 [21] = test: Induction of apoptosis in human NCI-H460 cells assessed as viable cells at 2 uM after 48 hrs by Annexin V-FITC/propidium iodide staining based flow cytometric analysis (reference value: 91.528 %); format: functional; conditions: read-out: Activity
NCI-H460 [22] = test: Induction of apoptosis in human NCI-H460 cells assessed as early apoptotic cells at 2 uM after 48 hrs by Annexin V-FITC/propidium iodide staining based flow cytometric analysis (reference value: 3.980 %); format: functional
NCI-H460 [23] = test: Induction of apoptosis in human NCI-H460 cells assessed as late apoptotic cells at 2 uM after 48 hrs by Annexin V-FITC/propidium iodide staining based flow cytometric analysis (reference value: 3.995 %); format: functional
NCI-H460 [24] = test: Induction of apoptosis in human NCI-H460 cells assessed as necrotic cells at 2 uM after 48 hrs by Annexin V-FITC/propidium iodide staining based flow cytometric analysis (reference value: 0.498 %); format: functional
NCI-H460 [25] = test: Induction of apoptosis in human NCI-H460 cells assessed as viable cells at 5 uM after 48 hrs by Annexin V-FITC/propidium iodide staining based flow cytometric analysis (reference value: 91.528 %); format: functional; conditions: read-out: Activity
NCI-H460 [26] = test: Induction of apoptosis in human NCI-H460 cells assessed as early apoptotic cells at 5 uM after 48 hrs by Annexin V-FITC/propidium iodide staining based flow cytometric analysis (reference value: 3.980 %); format: functional
NCI-H460 [27] = test: Induction of apoptosis in human NCI-H460 cells assessed as late apoptotic cells at 5 uM after 48 hrs by Annexin V-FITC/propidium iodide staining based flow cytometric analysis (reference value: 3.995 %); format: functional
NCI-H460 [28] = test: Induction of apoptosis in human NCI-H460 cells assessed as necrotic cells at 5 uM after 48 hrs by Annexin V-FITC/propidium iodide staining based flow cytometric analysis (reference value: 0.498 %); format: functional
NCI-H460 [29] = test: Induction of apoptosis in human NCI-H460 cells assessed as viable cells at 10 uM after 48 hrs by Annexin V-FITC/propidium iodide staining based flow cytometric analysis (reference value: 91.528 %); format: functional; conditions: read-out: Activity
NCI-H460 [30] = test: Induction of apoptosis in human NCI-H460 cells assessed as early apoptotic cells at 10 uM after 48 hrs by Annexin V-FITC/propidium iodide staining based flow cytometric analysis (reference value: 3.980 %); format: functional
NCI-H460 [31] = test: Induction of apoptosis in human NCI-H460 cells assessed as late apoptotic cells at 10 uM after 48 hrs by Annexin V-FITC/propidium iodide staining based flow cytometric analysis (reference value: 3.995 %); format: functional
NCI-H460 [32] = test: Induction of apoptosis in human NCI-H460 cells assessed as necrotic cells at 10 uM after 48 hrs by Annexin V-FITC/propidium iodide staining based flow cytometric analysis (reference value: 0.498 %); format: functional
[33] = Toxicity in nude BALB/c mouse xenografted with C26 cells assessed as body weight loss at 60 mg/kg, po administered once daily and measured every two days; format: organism-based; conditions: in vivo
[34] = Toxicity in nude BALB/c mouse xenografted with C26 cells assessed as change in body weight at 50 mg/kg, po administered once daily and measured every two days; format: organism-based; conditions: in vivo
[35] = Toxicity in nude BALB/c mouse xenografted with C26 cells assessed as abnormalities in liver size and morphology at 50 mg/kg, po administered once daily; format: organism-based; conditions: in vivo
[36] = Toxicity in nude BALB/c mouse xenografted with C26 cells assessed as abnormalities in kidney size and morphology at 50 mg/kg, po administered once daily; format: organism-based; conditions: in vivo
[37] = Toxicity in nude BALB/c mouse xenografted with C26 cells assessed as abnormalities in lung size and morphology at 50 mg/kg, po administered once daily; format: organism-based; conditions: in vivo
[38] = Toxicity in nude BALB/c mouse xenografted with C26 cells assessed as abnormalities in heart size and morphology at 50 mg/kg, po administered once daily; format: organism-based; conditions: in vivo

SMILES: CCN(CC)CCCC(C)Nc1ccnc2cc(Cl)ccc12 (stereo not given) [CHLOROQUINE PHOSPHATE]
- inhibition in vivo at 10 mg/kg (NCI-H460 [1]): 8.67%

- IC50 (HCC827): 10.8 µM
- IC50 (NCI-H1975): 8.68 µM
- IC50 (NCI-H460 [2]): 9.25 µM
- IC50 (A549): 8.31 µM
- IC50 (NCI-H1650): 6.46 µM
- IC50 (NCI-H441): 7.12 µM
- half-life [4]: 2.1 h
- CLint [5]: 11 mL/min/g
SMILES: C=CCc1ccc(O)c(-c2cc(CC=C)cc(CN3CCC(N)CC3)c2O)c1
- IC50 [3]: 9.66 µM
- IC50 (L929): 0.83 µM
- inhibition in vivo at 50 mg/kg [6]: 45.5%
- inhibition in vivo at 60 mg/kg (NCI-H460 [7]): 45.2%
- Activity (NCI-H460 [8]): 55%
- Activity (NCI-H460 [9]): 22.68%
- Activity (NCI-H460 [10]): 22.32%
- Activity (NCI-H460 [11]): 58.76%
- Activity (NCI-H460 [12]): 18.49%
- Activity (NCI-H460 [13]): 22.74%
- Activity (NCI-H460 [14]): 65.66%
- Activity (NCI-H460 [15]): 15.16%
- Activity (NCI-H460 [16]): 19.19%
- viability at 1 µM (NCI-H460 [17]): 88.8%
- Activity (NCI-H460 [18]): 6.017%
- Activity (NCI-H460 [19]): 4.207%
- Activity (NCI-H460 [20]): 0.931%
- viability at 2 µM (NCI-H460 [21]): 87.6%
- Activity (NCI-H460 [22]): 6.067%
- Activity (NCI-H460 [23]): 5.012%
- Activity (NCI-H460 [24]): 1.301%
- viability at 5 µM (NCI-H460 [25]): 86.9%
- Activity (NCI-H460 [26]): 6.82%
- Activity (NCI-H460 [27]): 5.72%
- Activity (NCI-H460 [28]): 0.51%
- viability at 10 µM (NCI-H460 [29]): 73.4%
- Activity (NCI-H460 [30]): 19.124%
- Activity (NCI-H460 [31]): 7.246%
- Activity (NCI-H460 [32]): 0.173%

- IC50 (HCC827): 0.82 µM
- IC50 (NCI-H1975): 1.45 µM
- IC50 (NCI-H460 [2]): 1.11 µM
- IC50 (A549): 2 µM
- IC50 (NCI-H1650): 2.34 µM
- IC50 (NCI-H441): 2.12 µM
- half-life [4]: 0.41 h
- CLint [5]: 56.4 mL/min/g
SMILES: C=CCc1ccc(OCC)c(-c2cc(CC=C)cc(CN3CCC(NC(=O)[C@@H](N)Cc4ccccc4)CC3)c2O)c1
- Activity [33]: Toxic
- IC50 [3]: 1.94 µM
- IC50 (L929): 6.24 µM
- inhibition in vivo at 50 mg/kg [6]: 57.4%
- Activity [34]: Toxic
- Activity [35]: Non-Toxic
- Activity [36]: Non-Toxic
- Activity [37]: Non-Toxic
- Activity [38]: Non-Toxic
